Data on six compounds can be found in patent publication US3988453A, “Novel phenothiazines as neuroleptics” (Roussel-UCLAF, priority 1974, dated 1976).

Counter-ions that a name gives are not always drawn. Like-named read-outs stand apart in the source and are kept apart here. Bounds are passed on as bounds.

As a reminder, the ED50 is the dose that gives a 50% effect, or the effect in half of the subjects.

In test [1] the test system is stereotypes provoked by apomorphine. Description: antagonism to stereotypes provoked by apomorphine. In kind it is in vivo, male rats. Particulars: rat, oral, read-out: ED50 (DE50), apomorphine sterotypes. The method, then: A. antagonism to stereotypes provoked by apomorphine
This test was conducted on groups of 5 male rats in individual cages with the procedure of Janssen et al [Arzn. Forsch., Vol. 15 (1965), p. 104-117 and Vol. 17 (1967), p. 841-854]. Each rat orally received the test compound and then, at variable times, an intraveinous injection of 1.5 mg of apomorphine hydrochloride in the veins of the penis. The times of injection were 1 hour, 24 hours, 2 days, 3 days or 4 days after the test product administration and the rats were studied during 1 minute after 5,10 and 15 minutes after the injection and the stereotype movements of the jaws spheres were evaluated for their degree of intensity on a scale for 0 to 3 /Boissier et al, Therapie, Vol. 25 (1970), p. 939-949/. The ED50 was determined at the maximum of the effect for the time considered that is to say the dose reducing the symptoms by 50% in the treated animals as compared to control animals and the results are reported in Table I.

Test [2] concerns toxicity provoked by amphetamine. The experiment in a line: antagonism to toxicity provoked by amphetamine. In kind it is in vivo, male mice. Particulars: mouse, oral, read-out: ED50 (DE50), amphetaminic toxicity. The method, then:
B. antagonism to toxicity provoked by amphetamine
This test was effect on groups of 10 male mice grouped in crystallizers with a 20 cm diameter and a 9 cm height closed with a grilled lid. Each mouse orally received a determined dose of the test product and at different times a single intraperitoneal dose of dexamphetamine sulfate. The injection was effected 1 hour, 24 hours or 2,3,4 or 7 days after the administration of the test compound and the mortality for each group was determined 24 hours after the injection. The ED50, the dose at which the toxicity of dexamphetamine sulphate was reduced by 50%, was determined and the results are reported in Table I.

The test system of test [3] is histamine hydrochloride lethality. The experiment in a line: antihistaminic activity (protection against lethal histamine dose). The note with it: guinea pig, oral 10 mg/kg. It is filed as in vivo, guinea pigs. The method, then:
E. antihistaminic Activity
This test was effected on guinea pigs which received orally a single dose of 10 mg/kg of the test product and then a intraveinous injection of 0.8 mg/kg of histamine hydrochloride 1 hour or 24 hours thereafter. This histamine dose is the minimum lethal dose for 100% of the animals within about 3 minutes and after 10 minutes, any surviving animals were considered to be protected. Each product was rated to see if 50% of the animals were alive at this dose and the values of Table IV show at least 50% protected by + and less than 50% protected by 0.

Where [4] appears, read: apomorphine 1 h after test product.
[5] abbreviates: apomorphine 24 h after test product.
Setting [6] is: dexamphetamine 1 h after test product.
[7] abbreviates: dexamphetamine 24 h after test product.
The mark [8] stands for this setting: 48 h, apomorphine 2 d after test product.
Where [9] appears, read: 72 h, apomorphine 3 d after test product.
Where [10] appears, read: 96 h, apomorphine 4 d after test product.
Where [11] appears, read: 48 h, dexamphetamine 2 d after test product.
The mark [12] stands for this setting: 72 h, dexamphetamine 3 d after test product.
[13] abbreviates: 96 h, dexamphetamine 4 d after test product.
Where [14] appears, read: 168 h, dexamphetamine 7 d after test product.

On to `c1ccc2c(c1)Sc1ccccc1N2CCCN1CCC(c2c[nH]c3ccccc23)CC1` [Example 1, 4-(3'-indolyl)-1-[γ-(10"-phenothiazinyl)-propyl]-piperidine.HCl], for which the ED50 was more than 50 mg/kg in test [1] (setting [4]), 35 mg/kg in test [1] (setting [5]), less than 10 mg/kg in test [2] (setting [6]) and less than 10 mg/kg in test [2] (setting [7]). Besides, the Protection against histamine is on record as 0 (less than 50% protected) in test [3] (after 1 hour) and “+ (at least 50% protected)” in test [3] (after 24 hours).
Take `COc1ccc2[nH]cc(C3CCN(CCCN4c5ccccc5Sc5ccc(C(F)(F)F)cc54)CC3)c2c1` [Example 3, 4-(5'-methoxy-3'-indolyl)-1-[γ-(2"-trifluoromethyl-10"-phenothiazinyl)-propyl]-piperidine hydrochloride]: the ED50 in test [1] (setting [8]) is less than 10 mg/kg; in test [1] (setting [9]), 12 mg/kg; in test [1] (setting [10]), 20 mg/kg; in test [1] (setting [4]), more than 50 mg/kg; in test [1] (setting [5]), less than 10 mg/kg; in test [2] (setting [11]), less than 10 mg/kg. The ED50 in test [2] (setting [12]), in test [2] (setting [13]), in test [2] (setting [6]) and in test [2] (setting [7]) was less than 10 mg/kg in each case.
In the case of `COc1ccc2c(C3CCN(CCCN4c5ccccc5Sc5ccc(C(F)(F)F)cc54)CC3)c(C)[nH]c2c1` [Example 4, 4-(2'-methyl-6'-methoxy-3'-indolyl)-1-[γ-(2"-trifluoromethyl-10"-phenothiazinyl)-propyl]-piperidine hydrochloride], the ED50 in test [1] (setting [8]) was 9 mg/kg; in test [1] (setting [9]), 16 mg/kg; in test [1] (setting [10]) it was 25 mg/kg; in test [1] (setting [4]), more than 50 mg/kg; in test [1] (setting [5]), 9 mg/kg; in test [2] (setting [11]), less than 10 mg/kg. Also, the ED50 in test [2] (setting [12]) is 9 mg/kg; in test [2] (setting [13]), 9 mg/kg; in test [2] (setting [14]), 50 mg/kg; in test [2] (setting [6]), 10 mg/kg; in test [2] (setting [7]), less than 10 mg/kg.
`Clc1ccc2c(c1)N(CCCN1CCC(c3c[nH]c4ccccc34)CC1)c1ccccc1S2` [Example 5, 4-(3'-indolyl)-1'-[γ-(2"-chloro-10"-phenothiazinyl)-propyl]-piperidine hydrochloride]: the ED50 is 12 mg/kg in test [1] (setting [8]); 27 mg/kg in test [1] (setting [9]); more than 50 mg/kg in test [1] (setting [4]); less than 10 mg/kg in test [1] (setting [5]); less than 10 mg/kg in test [2] (setting [11]); 10 mg/kg in test [2] (setting [12]). Also, the ED50 in test [2] (setting [13]) was 17 mg/kg; in test [2] (setting [6]), 16 mg/kg; in test [2] (setting [7]) it was less than 10 mg/kg. Also, the Protection against histamine entry in test [3] (after 1 hour) and in test [3] (after 24 hours) was “+ (at least 50% protected)” in each case.
Take `COc1ccc2c(c1)N(CCCN1CCC(c3c[nH]c4ccccc34)CC1)c1ccccc1S2` [Example 6, 4-(3'-indolyl)-1-[γ-(2"-methoxy-10"-phenothiazinyl)-propyl]-piperidine hydrochloride]: the ED50 in test [1] (setting [8]) is 45 mg/kg; in test [1] (setting [4]), more than 50 mg/kg; in test [1] (setting [5]), less than 10 mg/kg; in test [2] (setting [11]), 10 mg/kg; in test [2] (setting [6]), less than 10 mg/kg; in test [2] (setting [7]), less than 10 mg/kg. In addition, the Protection against histamine in test [3] (after 1 hour) is given as 0 (less than 50% protected); in test [3] (after 24 hours), “+ (at least 50% protected)”.
On to `CC(CN1CCC(c2c[nH]c3ccccc23)CC1)CN1c2ccccc2Sc2ccc(C(F)(F)F)cc21` (stereo not drawn) [Example 7, 4-(3'-indolyl)-1-[β-methyl-γ-(2"-trifluoromethyl-10"-phenothiazinyl)-propyl]-piperidine hydrochloride], for which the ED50 in test [1] (setting [8]) was 10 mg/kg; in test [1] (setting [9]) it was less than 10 mg/kg; in test [1] (setting [10]), 12 mg/kg; in test [1] (setting [4]), more than 20 mg/kg; in test [1] (setting [5]), 10 mg/kg; in test [2] (setting [11]), less than 10 mg/kg. The ED50 in test [2] (setting [12]) was 13 mg/kg; in test [2] (setting [13]) it was less than 10 mg/kg; in test [2] (setting [14]) it was 19 mg/kg; in test [2] (setting [6]), more than 20 mg/kg; in test [2] (setting [7]), less than 10 mg/kg. The figures for the Protection against histamine in test [3] (after 1 hour) and in test [3] (after 24 hours) were 0 (less than 50% protected) and “+ (at least 50% protected)”, respectively.
